From patent publication US20230081426A1, “COMPOUNDS AND METHODS FOR KRAS MODULATION AND INDICATIONS THEREFOR” (Plexxikon Inc., priority 2020, published 2023)

What was measured:
[1] = target: T1, G12V-mutant human KRAS (amino acid residues 1-188) (Homo sapiens, UniProt P01116, G12V); test: KRAS Binding Competition Assay (AlphaScreen; biotinylated KRpep-2d analogue), G12V; settings: geometric mean, read-out: KRAS GMean IC50 (uM) MUTATION: G12V
T1 construct: G12V-mutant human KRAS (amino acid residues 1-188) with FLAG tag was purified from E. coli; made in house; host or cells: E. coli

[2] = target: T2, G12D-mutant human KRAS (amino acid residues 1-188) (Homo sapiens, UniProt P01116, G12D); test: KRAS Binding Disruption Assay (AlphaScreen; biotinylated KRpep-2d analogue or RAF1-RBD), G12D; settings: KRAS G12D; geometric mean; read-out: KRAS GMean IC50 (uM) MUTATION: G12D
T2 construct: G12D or G12C-mutant human KRAS (amino acid residues 1-188) with FLAG tag; made in house; host or cells: E. coli
Summary of the method: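 Mutant KRAS (5-20 nM) incubated 1 h at 25° C with test compound and 5-20 nM biotinylated KRpep-2d analogue or RAF1-RBD in 20 mM HEPES pH 7.5, 100 mM NaCl, 5 mM MgCl2, 0.01% Tween-20, 0.01% BSA.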

Structure (SMILES): CN1CCC[C@H]1COc1nc(N2[C@@H]3CC[C@H]2CN(C2CNC2)C3)c2ccc(-c3cc(O)cc4ccccc34)cc2n1 [P-0226, 4-(4-((1R,5S)-3-(azetidin-3-yl)-3,8-diazabicyclo[3.2.1]octan-8-yl)-2-(((S)-1-methylpyrrolidin-2-yl)methoxy)quinazolin-7-yl)naphthalen-2-ol]
- IC50 [1]: 100 to 1000 µM
- IC50 [2]: 100 to 1000 µM

Structure (SMILES): Oc1cc(-c2ccc3c(N4C[C@H]5CC[C@@H](C4)N5)nc(OCC45CCCCN4CCCC5)nc3c2)c2ccccc2c1 [P-0095, 4-(4-((1R,5S)-3,8-diazabicyclo[3.2.1]octan-3-yl)-2-((octahydro-9aH-quinolizin-9a-yl)methoxy)quinazolin-7-yl)naphthalen-2-ol]
- IC50 [1]: 10 to 100 µM
- IC50 [2]: 0.0001 to 10 µM

Structure (SMILES): CCN1CC[C@H](NC(=O)N2[C@@H]3CC[C@H]2CN(c2nc(OCC4CCCN4C)nc4c(F)c(-c5cc(O)cc6ccccc56)ccc24)C3)C1 (stereo partly drawn) [P-0418, (1R,5S)-N-((S)-1-ethylpyrrolidin-3-yl)-3-(8-fluoro-7-(3-hydroxynaphthalen-1-yl)-2-((1-methylpyrrolidin-2-yl)methoxy)quinazolin-4-yl)-3,8-diazabicyclo[3.2.1]octane-8-carboxamide]
- IC50 [1]: 10 to 100 µM
- IC50 [2]: 0.0001 to 10 µM

Structure (SMILES): Cc1cccc2cccc(-c3ccc4c(N5C[C@H]6CC[C@@H](C5)N6C(=O)CC#N)nc(OCC56CCCN5CCC6)nc4c3F)c12 [P-0442, 3-((1R,5S)-3-(8-fluoro-7-(8-methylnaphthalen-1-yl)-2-((tetrahydro-1H-pyrrolizin-7a(5H)-yl)methoxy)quinazolin-4-yl)-3,8-diazabicyclo[3.2.1]octan-8-yl)-3-oxopropanenitrile]
- IC50 [1]: 0.0001 to 10 µM
- IC50 [2]: 10 to 100 µM

Structure (SMILES): CN1CCC[C@H]1COc1nc(N2C[C@H]3CC[C@@H](C2)N3C(=O)CC2SC(=O)NC2=O)c2cc(Cl)c(-c3cc(O)cc4ccccc34)c(F)c2n1 (stereo partly drawn) [P-0447, 5-(2-((1R,5S)-3-(6-chloro-8-fluoro-7-(3-hydroxynaphthalen-1-yl)-2-(((S)-1-methylpyrrolidin-2-yl)methoxy)quinazolin-4-yl)-3,8-diazabicyclo[3.2.1]octan-8-yl)-2-oxoethyl)thiazolidine-2,4-dione]
- IC50 [1]: 0.0001 to 10 µM
- IC50 [2]: 0.0001 to 10 µM

Structure (SMILES): Cc1ccc2[nH]ncc2c1-c1ccc2c(N3C[C@H]4CC[C@@H](C3)N4)nc(OC[C@@H]3CCCN3C)nc2c1 [P-0161, 4-((1R,5S)-3,8-diazabicyclo[3.2.1]octan-3-yl)-7-(5-methyl-1H-indazol-4-yl)-2-(((S)-1-methylpyrrolidin-2-yl)methoxy)quinazoline]
- IC50 [1]: 100 to 1000 µM
- IC50 [2]: 0.0001 to 10 µM

Structure (SMILES): Oc1cc(-c2ccc3c(N4C[C@H]5CC[C@@H](C4)N5)nc(NCC45CCCN4CCC5)nc3c2F)c2ccccc2c1 [P-0631, 4-(4-((1R,5S)-3,8-diazabicyclo[3.2.1]octan-3-yl)-8-fluoro-2-(((tetrahydro-1H-pyrrolizin-7a(5H)-yl)methyl)amino)quinazolin-7-yl)naphthalen-2-ol]
- IC50 [1]: 10 to 100 µM
- IC50 [2]: 0.0001 to 10 µM

Structure (SMILES): CN1CCC[C@H]1COc1nc(N2[C@@H]3CC[C@H]2CNC3)c2ccc(-c3c(O)ccc4ccccc34)cc2n1 [P-0259, 1-(4-((1R,5S)-3,8-diazabicyclo[3.2.1]octan-8-yl)-2-(((S)-1-methylpyrrolidin-2-yl)methoxy)quinazolin-7-yl)naphthalen-2-ol]
- IC50 [1]: 10 to 100 µM
- IC50 [2]: 0.0001 to 10 µM

Structure (SMILES): CN1CCC[C@H]1COc1nc(N2[C@@H]3CC[C@H]2CN(C(=O)C(=O)Nc2ccccn2)C3)c2ccc(-c3cc(O)cc4ccccc34)cc2n1 [P-0229, 2-((1R,5S)-8-(7-(3-hydroxynaphthalen-1-yl)-2-(((S)-1-methylpyrrolidin-2-yl)methoxy)quinazolin-4-yl)-3,8-diazabicyclo[3.2.1]octan-3-yl)-2-oxo-N-(pyridin-2-yl)acetamide]
- IC50 [1]: 10 to 100 µM
- IC50 [2]: 10 to 100 µM

Structure (SMILES): CC(=O)OCC(=O)N1[C@@H]2CC[C@H]1CN(c1nc(OCC34CCCN3CCC4)nc3cc(-c4cc(O)cc5ccccc45)ccc13)C2 [P-0089, 2-((1R,5S)-3-(7-(3-hydroxynaphthalen-1-yl)-2-((tetrahydro-1H-pyrrolizin-7a(5H)-yl)methoxy)quinazolin-4-yl)-3,8-diazabicyclo[3.2.1]octan-8-yl)-2-oxoethyl acetate]
- IC50 [1]: 0.0001 to 10 µM
- IC50 [2]: 0.0001 to 10 µM

Structure (SMILES): CN1CCC[C@H]1COc1nc(N2C[C@H]3CC[C@@H](C2)N3)c2ccc(-c3cc(Cl)ccc3O)cc2n1 [P-0166, 2-(4-((1R,5S)-3,8-diazabicyclo[3.2.1]octan-3-yl)-2-(((S)-1-methylpyrrolidin-2-yl)methoxy)quinazolin-7-yl)-4-chlorophenol]
- IC50 [1]: 100 to 1000 µM
- IC50 [2]: 100 to 1000 µM

Structure (SMILES): CN(C)CCCC(=O)N1[C@@H]2CC[C@H]1CN(c1nc(OCC34CCCN3CCC4)nc3c(F)c(-c4cc(O)cc5ccccc45)ccc13)C2 [P-0146, 4-(dimethylamino)-1-((1R,5S)-3-(8-fluoro-7-(3-hydroxynaphthalen-1-yl)-2-((tetrahydro-1H-pyrrolizin-7a(5H)-yl)methoxy)quinazolin-4-yl)-3,8-diazabicyclo[3.2.1]octan-8-yl)butan-1-one]
- IC50 [1]: 0.0001 to 10 µM
- IC50 [2]: 0.0001 to 10 µM

Structure (SMILES): CN1CCC[C@H]1COc1nc(N2[C@@H]3CC[C@H]2CN(CC(=O)Nc2ccccn2)C3)c2ccc(-c3cc(O)cc4ccccc34)cc2n1 [P-0225, 2-((1R,5S)-8-(7-(3-hydroxynaphthalen-1-yl)-2-(((S)-1-methylpyrrolidin-2-yl)methoxy)quinazolin-4-yl)-3,8-diazabicyclo[3.2.1]octan-3-yl)-N-(pyridin-2-yl)acetamide]
- IC50 [1]: 10 to 100 µM
- IC50 [2]: 10 to 100 µM

Structure (SMILES): CN1CCC[C@H]1COc1nc(N2C[C@H]3CC[C@@H](C2)N3C(=O)C(O)CO)c2ccc(-c3cc(O)cc4ccccc34)c(F)c2n1 (stereo partly drawn) [P-0404, 1-((1R,5S)-3-(8-fluoro-7-(3-hydroxynaphthalen-1-yl)-2-(((S)-1-methylpyrrolidin-2-yl)methoxy)quinazolin-4-yl)-3,8-diazabicyclo[3.2.1]octan-8-yl)-2,3-dihydroxypropan-1-one]
- IC50 [1]: 10 to 100 µM
- IC50 [2]: 0.0001 to 10 µM

Structure (SMILES): CN1CCC[C@H]1COc1nc(N2C[C@H]3CC[C@@H](C2)N3)c2ccc(-c3c(O)ccc4ccccc34)cc2n1 [P-0338, 1-(4-((1R,5S)-3,8-diazabicyclo[3.2.1]octan-3-yl)-2-(((S)-1-methylpyrrolidin-2-yl)methoxy)quinazolin-7-yl)naphthalen-2-ol]
- IC50 [1]: 10 to 100 µM
- IC50 [2]: 0.0001 to 10 µM

Structure (SMILES): C[C@H](O)C(=O)N1C[C@H]2CC[C@@H](C1)N2c1nc(OC[C@@H]2CCCN2C)nc2cc(-c3cc(O)cc4ccccc34)ccc12 [P-0221, (S)-2-hydroxy-1-((1R,5S)-8-(7-(3-hydroxynaphthalen-1-yl)-2-(((S)-1-methylpyrrolidin-2-yl)methoxy)quinazolin-4-yl)-3,8-diazabicyclo[3.2.1]octan-3-yl)propan-1-one]
- IC50 [1]: 10 to 100 µM
- IC50 [2]: 10 to 100 µM

Structure (SMILES): Cc1cc2cn[nH]c2cc1-c1ccc2c(N3C[C@H]4CC[C@@H](C3)N4)nc(OCC3CCCN3C)nc2c1 (stereo partly drawn) [P-0155, 4-((1R,5S)-3,8-diazabicyclo[3.2.1]octan-3-yl)-7-(5-methyl-1H-indazol-6-yl)-2-((1-methylpyrrolidin-2-yl)methoxy)quinazoline]
- IC50 [1]: 10 to 100 µM
- IC50 [2]: 100 to 1000 µM

Structure (SMILES): CN1CCC[C@H]1COc1nc(N2C[C@H]3CC[C@@H](C2)N3)c2ccc(-c3c(O)cccc3Cl)cc2n1 [P-0342, 2-(4-((1R,5S)-3,8-diazabicyclo[3.2.1]octan-3-yl)-2-(((S)-1-methylpyrrolidin-2-yl)methoxy)quinazolin-7-yl)-3-chlorophenol]
- IC50 [1]: 10 to 100 µM
- IC50 [2]: 0.0001 to 10 µM
